What all share (assay type): cell-based
The target in one test is T1, SERT C109A (Rattus norvegicus, UniProt P31652, C109A).
T1 construct: expressed in transfected cells
Description: MTSET inhibition of APP+ uptake in live cells (extracellular pathway cysteine accessibility). On the procedure: Figure 3 Reactivity of the extracellular cysteine mutants with MTSET. (A) MTSET concentration-dependent inhibition of APP^+ uptake. The cells stably expressing C109A, Y107C/C109C, or S404C/C109A were incubated for 15 min with indicated concentrations of MTSET. The MTSET concentration giving half-maximal inhibition of APP^+ accumulation in the cells was used to calculate inactivation rate constants as plotted in (B). In this experiment, half-maximal MTSET concentrations were […] for C109A, 0.011 ± 0.006 mM for Y107C/C109A, and 0.0025 ± 0.0008 mM for S404C/C109A, respectively. Representative images of APP^+ uptake by C109A, Y107C/C109A, or S404C/C109A under various MTSET concentrations were shown in Supplemental Figure S1. The experiment was repeated twice with similar results. (B) Rate constants of MTSET inhibition of APP^+ uptake. At the half-maximal concentration, the half-time is the assay time (15 min) and the first-order rate constant is 7.7 × 10^−4 s^−1. […]
Accessibility of the cysteine residues in the extracellular pathway was measured by reactivity of Y107C/C109A and S404C/C109A mutants with MTSET. […] The extent of APP^+ accumulated in the cells was determined by confocal imaging analysis in the live cells. […] The MTSET concentration causing half-maximal inactivation was determined and used to calculate the rate constant for cysteine modification, as described previously.

The next test deals with T2, SERT Y107C/C109A (Rattus norvegicus, UniProt P31652, C109A/Y107C).
T2 construct: expressed in transfected cells
The test is described as above. The following applies: Y107C/C109A. Here is the method: (§1) Figure 3 Reactivity of the extracellular cysteine mutants with MTSET. (A) MTSET concentration-dependent inhibition of APP^+ uptake. The cells stably expressing C109A, Y107C/C109C, or S404C/C109A were incubated for 15 min with indicated concentrations of MTSET. The MTSET concentration giving half-maximal inhibition of APP^+ accumulation in the cells was used to calculate inactivation rate constants as plotted in (B). […] Representative images of APP^+ uptake by C109A, Y107C/C109A, or S404C/C109A under various MTSET concentrations were shown in Supplemental Figure S1. […] (B) Rate constants of MTSET inhibition of APP^+ uptake. At the half-maximal concentration, the half-time is the assay time (15 min) and the first-order rate constant is 7.7 × 10^−4 s^−1. This rate constant was divided by the half maximal MTSET concentration from (A) to obtain the pseudo first-order modification rate constant. Error bars represent SEM of three experiments.
(A) MTSET concentration-dependent inhibition of APP^+ uptake. […] After washing to remove excess MTSET and ligands, APP^+ uptake was measured as described under “Materials and Methods”. […] (B) Rate constants of MTSET inhibition of APP^+ uptake. The IC50 values of MTSET inhibition were used to calculate rate constants as described under “Materials and Methods”. Error bars represent SEM from three experiments.
(§2) The cells stably expressing Y107C/C109A or S404C/C109A were preincubated with indicated ligands and MTSET at a concentration of 0.01 mM for Y107C/C109A or 0.002 mM for S404C/C109A at 22 °C for 15 min, respectively. At the end of this incubation, cells were washed free of MTSET and ligands into KRH buffer containing NaCl and APP^+. APP^+ uptake was measured as described under “Materials and Methods”. Error bars represent SEM from three experiments. Asterisks and hashtags indicate statistically significant changes (p < 0.05) in the accumulated APP^+ fluorescence compared with the corresponding control (MTSET alone).
The cells stably expressing Y107C/C109A were treated at 22 °C for 15 min with indicated concentrations of MTSET in the absence or presence of 10 μM vilazodone. After washing to remove excess MTSET and vilazodone, APP^+ uptake was measured as described under “Materials and Methods”. […] The IC50 values of MTSET inhibition were used to calculate rate constants as described under “Materials and Method”. Error bars represent SEM from three experiments. […] After washing to remove excess MTSEA and vilazodone, ASP^+ binding was measured as described under “Materials and Methods”. […] The IC50 values of MTSEA inhibition of ASP^+ binding were converted to rate constants.

Another test addresses T3, SERT S404C/C109A (Rattus norvegicus, UniProt P31652, C109A/S404C).
T3 construct: expressed in transfected cells
Described as above. The following applies: for IC50: S404C/C109A. On the procedure:
as §1, §2
Accessibility of the cysteine residues in the extracellular pathway was measured by reactivity of Y107C/C109A and S404C/C109A mutants with MTSET. The cells stably expressing Y107C/C109A or S404C/C109A were incubated with MTSET over a range of concentrations in HEPES buffer containing indicated ligands or ions at 22 °C for 15 min. After excess MTSET and ligands were removed by rapid 3 × washing with the same buffer, the cells were then incubated with APP^+ at a final concentration of 2 μM in KRH buffer at 22 °C for another 5 min. The extent of APP^+ accumulated in the cells was determined by confocal imaging analysis in the live cells. To measure the effects of antidepressants, substrate 5-HT, or other ligands such as 5-HTP or tryptophan, where added, was present at 10 μM. To measure the effects of ions, 150 mM […] (NMDG) gluconate, and NMDG chloride, sodium isethionate, or NaCl was used as indicated. These measurements of reactivity depend on the ability of MTSET to inactivate APP^+ transport activity by an allosteric mechanism. The MTSET concentration causing half-maximal inactivation was determined and used to calculate the rate constant for cysteine modification, as described previously.

The next test addresses T4, SERT S277C/X5C (Rattus norvegicus, UniProt P31652, C109A/C15A/C21A/C357I/C622A/S277C).
T4 construct: expressed in transfected cells
Briefly: MTS reagent inhibition of ASP+ binding in digitonin-permeabilized cells (cytoplasmic pathway cysteine accessibility). The following applies: S277C/X5C, 25 μg/mL digitonin. Here is the method:
After 3 × rapid washing with KRH buffer, APP^+ or ASP^+ accumulation was measured as described under “Materials and Methods”. […] These representative images were parallelly acquired from one experiment. […] After 3 × washing, ASP^+ binding to the cell membrane was measured as described under “Materials and Methods”. […] (D) The effects of MTSET on ASP^+ binding of S277C/X5C and X5C. […] After 3 × rapid washing, ASP^+ binding was measured as described under “Materials and Methods”.
After washing to remove excess MTSEA and ligands, ASP^+ binding was measured as described under “Materials and Methods”. […] The IC50 values of MTSEA inhibition of ASP^+ binding were converted to rate constants.
The cells stably expressing Y107C/C109A were treated at 22 °C for 15 min with indicated concentrations of MTSET in the absence or presence of 10 μM vilazodone. After washing to remove excess MTSET and vilazodone, APP^+ uptake was measured as described under “Materials and Methods”. […] The IC50 values of MTSET inhibition were used to calculate rate constants as described under “Materials and Method”. Error bars represent SEM from three experiments. […] After washing to remove excess MTSEA and vilazodone, ASP^+ binding was measured as described under “Materials and Methods”. […] The IC50 values of MTSEA inhibition of ASP^+ binding were converted to rate constants. […]
For cytoplasmic pathway accessibility, measurements were performed with the cells stably expressing S277C/X5C. […] The cells, then, were washed free of unreacted MTSEA and ligands, ASP^+ binding was measured by adding 500 μL KRH buffer containing 10 μM ASP^+ and incubating at 22 °C for 5 min. Excess ASP^+ was removed by 3 × rapid washing with KRH buffer and ASP^+ fluorescence retained in the cell membrane was measured by confocal imaging analysis in the permeabilized cells. […] The MTSEA IC50 value was determined and used to calculate the rate constant for S277C/X5C modification.
(In general: Formazan colour is commonly taken as a measure of viable cells.)

[1] abbreviates: 15 min incubation with MTSET, read-out: half-maximal MTSET concentration for inhibition of APP+ accumulation.
Setting [2] is: constant concentration used in simplified assay, read-out: MTSET IC50 value (APP+ uptake inhibition).

This is an account of results in article PMC9503009, “Determining Ligand and Ion-Induced Conformational Changes in Serotonin Transporter with Its Fluorescent Substrates” (International Journal of Molecular Sciences, 2022).

The structures appear in SMILES notation. Where two headings read alike, the source gives them in different places. Where only a bound is given, the exact number is not on record here.

As for `C[N+](C)(C)CCSS(C)(=O)=O.[Br-]` [MTSET, 2-(Trimethylammonium) ethyl methanethiosulfonate bromide], the IC50 at SERT C109A (C109A, 15 min incubation with MTSET, read-out: half-maximal MTSET concentration for inhibition of APP+ accumulation) was > 1000 µM; at SERT Y107C/C109A (setting [1]) it was 11 ± 6 µM; on SERT Y107C/C109A (setting [2]), 10 µM; on SERT S404C/C109A (setting [1]), 2.5 ± 0.8 µM; at SERT S404C/C109A (setting [2]), 2 µM. Also, the “effect on transport activity (APP+ uptake)” value on SERT C109A (background construct C109A, MTSET 0.1 μM to 1 mM) was “little effect”. In addition, at SERT S404C/C109A (pseudo first-order rate constants), the “reactivity with MTSET of S404C/C109A relative to Y107C/C109A (faster by)” value is recorded as 4-5 fold. At SERT S277C/X5C, the “accessibility of Cys277 to MTSET” value is given as “not accessible”.
